Measurements as given in US11208412B2 (DAEGU-GYEONGBUK MEDICAL INNOVATION FOUNDATION, priority 2017, dated 2021).

How the values were obtained:
Test in all cases: Kinase selectivity, DiscoverX scanMAX Kinase assay panel (% control)
Format in all cases: binding
[1] = molecular target: T1, kinases of the scanMAX Kinase assay panel (Homo sapiens, UniProt O00750); details: PIK3C2B; 1 uM
T1 construct: purchased DiscoverX Co. (contract measurement) scanMAX Kinase assay panel
Outline: (§1)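 Binding-panel profiling at one concentration, 1 uM in DMSO; values are % of DMSO control after subtracting the positive-control floor. Less than 35% means activity on that kinase.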

[2] = molecular target: T2, kinases of the scanMAX Kinase assay panel (Homo sapiens, UniProt P54762); details: EPHB1; 1 uM
T2 construct: purchased DiscoverX Co. (contract measurement) scanMAX Kinase assay panel
T2 sequence (P54762 18-984): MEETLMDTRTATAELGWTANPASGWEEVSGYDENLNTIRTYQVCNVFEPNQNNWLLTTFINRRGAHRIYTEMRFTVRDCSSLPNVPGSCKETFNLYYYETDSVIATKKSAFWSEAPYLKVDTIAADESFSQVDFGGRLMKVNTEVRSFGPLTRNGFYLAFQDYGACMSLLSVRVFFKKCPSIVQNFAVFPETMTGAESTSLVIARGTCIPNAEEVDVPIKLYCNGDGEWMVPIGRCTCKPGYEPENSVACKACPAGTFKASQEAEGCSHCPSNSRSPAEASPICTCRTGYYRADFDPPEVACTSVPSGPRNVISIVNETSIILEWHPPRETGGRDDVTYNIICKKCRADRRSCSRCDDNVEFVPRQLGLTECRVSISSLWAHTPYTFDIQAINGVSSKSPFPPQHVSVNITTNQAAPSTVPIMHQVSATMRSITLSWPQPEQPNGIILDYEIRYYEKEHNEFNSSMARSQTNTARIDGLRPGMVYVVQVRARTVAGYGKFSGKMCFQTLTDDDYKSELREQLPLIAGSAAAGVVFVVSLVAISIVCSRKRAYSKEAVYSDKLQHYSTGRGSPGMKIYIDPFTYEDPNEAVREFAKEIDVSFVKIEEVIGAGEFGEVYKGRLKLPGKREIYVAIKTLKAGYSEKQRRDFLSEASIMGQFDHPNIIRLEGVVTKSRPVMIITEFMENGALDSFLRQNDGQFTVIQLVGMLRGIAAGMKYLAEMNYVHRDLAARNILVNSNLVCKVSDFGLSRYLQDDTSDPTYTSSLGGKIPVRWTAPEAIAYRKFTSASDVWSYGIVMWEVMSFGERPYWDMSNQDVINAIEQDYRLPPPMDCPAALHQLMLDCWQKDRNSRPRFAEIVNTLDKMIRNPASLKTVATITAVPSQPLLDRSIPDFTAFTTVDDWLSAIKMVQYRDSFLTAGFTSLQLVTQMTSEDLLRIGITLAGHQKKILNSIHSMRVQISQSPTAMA
Outline: as §1

[3] = molecular target: T3, kinases of the scanMAX Kinase assay panel (Homo sapiens, UniProt P35916); details: FLT4; 1 uM
T3 construct: purchased DiscoverX Co. (contract measurement) scanMAX Kinase assay panel
T3 sequence (P35916 25-1363): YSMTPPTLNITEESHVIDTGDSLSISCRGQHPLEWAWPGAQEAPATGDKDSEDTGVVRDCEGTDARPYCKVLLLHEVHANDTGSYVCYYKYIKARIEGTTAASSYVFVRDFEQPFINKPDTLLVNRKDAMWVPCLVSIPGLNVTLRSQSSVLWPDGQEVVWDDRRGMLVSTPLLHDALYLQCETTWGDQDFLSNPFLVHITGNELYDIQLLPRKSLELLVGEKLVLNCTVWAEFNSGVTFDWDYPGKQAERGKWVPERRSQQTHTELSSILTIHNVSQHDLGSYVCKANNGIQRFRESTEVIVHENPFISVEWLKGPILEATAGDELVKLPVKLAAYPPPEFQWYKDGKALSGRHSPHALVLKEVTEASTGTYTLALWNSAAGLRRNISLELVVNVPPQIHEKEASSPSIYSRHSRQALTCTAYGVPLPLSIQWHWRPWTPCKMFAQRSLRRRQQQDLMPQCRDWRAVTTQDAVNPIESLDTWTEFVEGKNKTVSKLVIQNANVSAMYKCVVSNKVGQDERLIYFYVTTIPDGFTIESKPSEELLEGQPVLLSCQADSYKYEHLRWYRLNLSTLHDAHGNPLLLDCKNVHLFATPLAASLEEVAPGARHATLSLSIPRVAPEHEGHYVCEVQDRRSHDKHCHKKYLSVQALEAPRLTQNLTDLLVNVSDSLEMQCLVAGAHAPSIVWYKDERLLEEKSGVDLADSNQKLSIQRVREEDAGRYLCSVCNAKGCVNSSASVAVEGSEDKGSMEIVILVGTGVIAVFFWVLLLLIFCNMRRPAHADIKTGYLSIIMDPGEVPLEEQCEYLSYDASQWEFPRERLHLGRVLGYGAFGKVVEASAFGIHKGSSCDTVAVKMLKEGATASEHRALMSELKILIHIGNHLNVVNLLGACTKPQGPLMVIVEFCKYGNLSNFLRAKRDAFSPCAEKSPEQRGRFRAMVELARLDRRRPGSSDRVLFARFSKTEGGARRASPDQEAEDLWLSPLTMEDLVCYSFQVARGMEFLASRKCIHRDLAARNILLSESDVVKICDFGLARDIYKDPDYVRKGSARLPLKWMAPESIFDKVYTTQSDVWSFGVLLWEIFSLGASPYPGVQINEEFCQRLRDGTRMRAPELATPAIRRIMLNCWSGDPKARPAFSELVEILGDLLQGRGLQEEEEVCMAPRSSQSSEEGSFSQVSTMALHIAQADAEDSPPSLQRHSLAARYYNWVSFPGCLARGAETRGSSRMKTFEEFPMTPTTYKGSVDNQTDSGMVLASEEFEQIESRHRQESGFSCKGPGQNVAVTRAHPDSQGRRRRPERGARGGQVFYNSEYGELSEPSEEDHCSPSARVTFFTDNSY
Outline: as §1

[4] = molecular target: T4, kinases of the scanMAX Kinase assay panel (Homo sapiens, UniProt P00519, T315I); details: 1 uM
T4 construct: purchased DiscoverX Co. (contract measurement) scanMAX Kinase assay panel
Outline: as §1

[5] = molecular target: T5, kinases of the scanMAX Kinase assay panel (Homo sapiens, UniProt P35590); details: kinase TIE1; 1 uM in DMSO
T5 construct: purchased DiscoverX Co. (contract measurement) scanMAX Kinase assay panel
Outline: as §1

[6] = molecular target: T6, kinases of the scanMAX Kinase assay panel (Homo sapiens, UniProt Q9P286); details: PAK7; 1 uM
T6 construct: purchased DiscoverX Co. (contract measurement) scanMAX Kinase assay panel
T6 sequence (Q9P286 whole entry): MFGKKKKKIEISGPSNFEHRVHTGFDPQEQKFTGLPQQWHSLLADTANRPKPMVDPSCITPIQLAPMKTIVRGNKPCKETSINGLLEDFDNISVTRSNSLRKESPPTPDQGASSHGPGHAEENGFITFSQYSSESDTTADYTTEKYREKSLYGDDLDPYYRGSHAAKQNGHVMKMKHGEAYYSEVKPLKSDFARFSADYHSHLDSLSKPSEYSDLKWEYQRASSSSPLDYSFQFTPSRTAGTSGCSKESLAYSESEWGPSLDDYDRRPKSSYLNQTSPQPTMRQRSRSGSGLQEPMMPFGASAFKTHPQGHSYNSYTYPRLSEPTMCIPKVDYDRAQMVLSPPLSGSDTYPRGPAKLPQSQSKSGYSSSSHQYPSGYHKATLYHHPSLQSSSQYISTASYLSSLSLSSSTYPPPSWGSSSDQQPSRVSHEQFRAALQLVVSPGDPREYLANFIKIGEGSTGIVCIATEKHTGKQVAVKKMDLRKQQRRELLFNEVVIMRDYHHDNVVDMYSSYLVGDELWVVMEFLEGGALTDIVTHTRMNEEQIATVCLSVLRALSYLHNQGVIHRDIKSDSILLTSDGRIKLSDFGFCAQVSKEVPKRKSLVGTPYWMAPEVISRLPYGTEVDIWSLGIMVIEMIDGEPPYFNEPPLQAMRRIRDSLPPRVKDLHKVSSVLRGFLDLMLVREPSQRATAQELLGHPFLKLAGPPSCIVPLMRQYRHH
Outline: as §1

[7] = molecular target: T7, kinases of the scanMAX Kinase assay panel (Homo sapiens, UniProt P41240); details: CSK; 1 uM
T7 construct: purchased DiscoverX Co. (contract measurement) scanMAX Kinase assay panel
T7 sequence (P41240 whole entry): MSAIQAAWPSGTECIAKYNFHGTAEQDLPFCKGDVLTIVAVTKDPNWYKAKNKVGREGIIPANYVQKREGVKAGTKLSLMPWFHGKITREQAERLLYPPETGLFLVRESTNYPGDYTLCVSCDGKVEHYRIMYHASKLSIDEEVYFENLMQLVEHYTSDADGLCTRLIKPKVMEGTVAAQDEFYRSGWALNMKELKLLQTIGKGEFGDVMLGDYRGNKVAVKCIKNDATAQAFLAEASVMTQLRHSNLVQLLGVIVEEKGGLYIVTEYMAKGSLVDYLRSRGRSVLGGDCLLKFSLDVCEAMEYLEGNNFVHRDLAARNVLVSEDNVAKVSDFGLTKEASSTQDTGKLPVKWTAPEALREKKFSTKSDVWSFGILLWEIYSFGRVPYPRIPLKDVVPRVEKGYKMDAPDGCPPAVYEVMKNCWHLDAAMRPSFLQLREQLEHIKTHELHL
Outline: as §1

[8] = molecular target: T8, kinases of the scanMAX Kinase assay panel (Homo sapiens, UniProt Q9HBH9); details: MKNK2; 1 uM
T8 construct: purchased DiscoverX Co. (contract measurement) scanMAX Kinase assay panel
T8 sequence (Q9HBH9 whole entry): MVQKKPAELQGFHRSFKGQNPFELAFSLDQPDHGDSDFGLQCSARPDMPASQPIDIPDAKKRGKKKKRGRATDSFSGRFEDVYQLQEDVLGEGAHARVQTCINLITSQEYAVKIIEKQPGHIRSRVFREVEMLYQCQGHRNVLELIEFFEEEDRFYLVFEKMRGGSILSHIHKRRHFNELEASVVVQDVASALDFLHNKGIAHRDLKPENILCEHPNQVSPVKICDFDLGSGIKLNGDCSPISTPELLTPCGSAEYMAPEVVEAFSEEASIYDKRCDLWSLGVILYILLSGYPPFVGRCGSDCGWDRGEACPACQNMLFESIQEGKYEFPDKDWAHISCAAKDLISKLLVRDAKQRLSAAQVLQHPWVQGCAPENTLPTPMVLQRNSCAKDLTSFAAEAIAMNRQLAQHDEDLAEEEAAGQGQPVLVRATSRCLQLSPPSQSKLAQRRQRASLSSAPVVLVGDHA
Outline: as §1

[9] = molecular target: T9, kinases of the scanMAX Kinase assay panel (Homo sapiens, UniProt P00519, F317L); details: 1 uM
T9 construct: purchased DiscoverX Co. (contract measurement) scanMAX Kinase assay panel
Outline: as §1

[10] = molecular target: T10, kinases of the scanMAX Kinase assay panel (Homo sapiens, UniProt Q13705); details: ACVR2B; 1 uM
T10 construct: purchased DiscoverX Co. (contract measurement) scanMAX Kinase assay panel
T10 sequence (Q13705 19-512): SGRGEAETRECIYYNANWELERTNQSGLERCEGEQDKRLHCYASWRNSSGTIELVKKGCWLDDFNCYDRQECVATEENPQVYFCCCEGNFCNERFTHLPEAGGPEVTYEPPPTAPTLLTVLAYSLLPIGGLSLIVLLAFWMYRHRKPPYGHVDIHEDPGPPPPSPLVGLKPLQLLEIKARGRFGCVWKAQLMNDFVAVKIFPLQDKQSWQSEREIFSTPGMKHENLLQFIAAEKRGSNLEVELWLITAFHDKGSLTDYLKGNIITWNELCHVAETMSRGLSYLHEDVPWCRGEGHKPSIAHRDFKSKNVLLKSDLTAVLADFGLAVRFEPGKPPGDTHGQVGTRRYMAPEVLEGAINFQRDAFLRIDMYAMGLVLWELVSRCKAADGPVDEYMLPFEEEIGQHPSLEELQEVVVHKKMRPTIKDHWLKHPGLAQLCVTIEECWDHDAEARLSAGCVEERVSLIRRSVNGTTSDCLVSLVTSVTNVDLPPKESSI
Outline: as §1

[11] = molecular target: T11, kinases of the scanMAX Kinase assay panel (Homo sapiens, UniProt Q9UQ88); details: CDC2L2; 1 uM
T11 construct: purchased DiscoverX Co. (contract measurement) scanMAX Kinase assay panel
T11 sequence (Q9UQ88 1-783): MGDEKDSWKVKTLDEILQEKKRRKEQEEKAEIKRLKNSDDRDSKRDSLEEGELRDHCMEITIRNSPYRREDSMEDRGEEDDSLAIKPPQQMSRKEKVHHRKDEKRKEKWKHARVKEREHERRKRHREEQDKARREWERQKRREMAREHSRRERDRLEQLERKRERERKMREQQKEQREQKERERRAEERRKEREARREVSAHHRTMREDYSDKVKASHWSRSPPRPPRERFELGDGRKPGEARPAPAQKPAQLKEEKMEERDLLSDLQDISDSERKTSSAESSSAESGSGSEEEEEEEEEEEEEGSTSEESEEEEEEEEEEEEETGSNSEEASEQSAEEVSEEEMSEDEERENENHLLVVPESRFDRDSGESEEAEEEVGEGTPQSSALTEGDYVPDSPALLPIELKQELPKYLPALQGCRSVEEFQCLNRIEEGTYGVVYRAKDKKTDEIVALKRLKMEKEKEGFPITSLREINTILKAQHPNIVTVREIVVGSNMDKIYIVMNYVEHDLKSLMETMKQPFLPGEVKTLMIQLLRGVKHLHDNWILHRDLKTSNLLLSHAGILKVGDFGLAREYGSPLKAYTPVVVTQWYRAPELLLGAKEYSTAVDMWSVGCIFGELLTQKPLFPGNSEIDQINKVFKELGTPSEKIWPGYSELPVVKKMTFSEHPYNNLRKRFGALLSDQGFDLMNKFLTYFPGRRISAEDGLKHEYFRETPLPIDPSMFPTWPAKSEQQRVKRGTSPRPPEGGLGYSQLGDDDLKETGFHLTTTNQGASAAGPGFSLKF
Outline: as §1

[12] = molecular target: T12, kinases of the scanMAX Kinase assay panel (Homo sapiens, UniProt Q9NQU5); details: PAK6; 1 uM
T12 construct: purchased DiscoverX Co. (contract measurement) scanMAX Kinase assay panel
T12 sequence (Q9NQU5 whole entry): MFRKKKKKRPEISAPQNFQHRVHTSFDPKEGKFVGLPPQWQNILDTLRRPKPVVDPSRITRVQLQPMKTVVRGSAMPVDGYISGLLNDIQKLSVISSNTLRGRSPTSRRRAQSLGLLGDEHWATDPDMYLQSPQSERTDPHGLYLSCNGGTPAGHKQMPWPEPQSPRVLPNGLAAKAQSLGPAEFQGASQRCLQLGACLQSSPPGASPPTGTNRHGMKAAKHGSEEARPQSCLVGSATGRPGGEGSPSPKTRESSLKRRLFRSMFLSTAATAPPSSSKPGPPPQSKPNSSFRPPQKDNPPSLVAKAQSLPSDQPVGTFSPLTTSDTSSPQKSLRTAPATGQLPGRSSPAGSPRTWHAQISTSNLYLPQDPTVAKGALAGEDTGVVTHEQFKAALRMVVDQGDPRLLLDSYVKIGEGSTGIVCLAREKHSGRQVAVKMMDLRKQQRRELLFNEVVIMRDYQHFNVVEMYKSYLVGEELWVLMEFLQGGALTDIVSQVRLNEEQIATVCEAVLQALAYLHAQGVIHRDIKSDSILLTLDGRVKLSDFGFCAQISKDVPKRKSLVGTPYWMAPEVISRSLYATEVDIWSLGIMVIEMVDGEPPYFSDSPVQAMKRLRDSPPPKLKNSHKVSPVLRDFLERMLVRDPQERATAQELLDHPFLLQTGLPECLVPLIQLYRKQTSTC
Outline: as §1

SMILES | remaining binding at 1 µM [1] [%] | remaining binding at 1 µM [2] [%] | remaining binding at 1 µM [3] [%] | remaining binding at 1 µM ([4]; ABL1(T315I)-nonphosphorylated) [%] | remaining binding at 1 µM ([4]; ABL1(T315I)-phosphorylated) [%] | remaining binding at 1 µM [5] [%] | remaining binding at 1 µM [6] [%] | remaining binding at 1 µM [7] [%] | remaining binding at 1 µM [8] [%] | remaining binding at 1 µM ([9]; ABL1(F317L)-nonphosphorylated) [%] | remaining binding at 1 µM ([9]; ABL1(F317L)-phosphorylated) [%] | remaining binding at 1 µM [10] [%] | remaining binding at 1 µM [11] [%] | remaining binding at 1 µM [12] [%]
CNc1nc(Nc2ccc(C(=O)N3CCOCC3)cc2OC)nc2[nH]cc(C#N)c12 [Example 1, 2-((2-methoxy-4-(morpholine-4-carbonyl)phenyl)amino)-4-(methylamino)-7H-pyrrolo[2,3-d]pyrimidine-5-carbonitrile] | 89 | 100 | 100 | 83 | 59 | 96 | 91 | 99 | 31 | 91 | 48 | 100 | 91 | 76
CC1(Nc2nc(Nc3cnn([C@H]4CCN(C5COC5)C[C@@H]4F)c3Cl)nc3[nH]cc(C#N)c23)CC1 [Example 52, 2-((5-chloro-1-((3S,4S)-3-fluoro-1-(oxetane-3-yl)piperidine-4-yl)-1H-pyrazole-4-yl)amino)((1-methylcyclopropyl)amino)-7H-pyrrolo[2,3-d]pyrimidine-5-carbonitrile] | 91 | 41 | 0.6 | 0 | 0.05 | 19 | 0.25 | 33 | 5.5 | 16 | 0 | 85 | 100 | 8.3
CCNc1nc(Nc2ccc(C(=O)N3CCC(N4CCOCC4)CC3)cc2OC)nc2[nH]cc(C(F)(F)F)c12 [Example 104, (4-((4-(ethylamino)-5-(trifluoromethyl)-7H-pyrrolo[2,3-d]pyrimidine-2-yl)amino)-3-methoxyphenyl)(4-morpholinopiperidine-1-yl)methanone] | 75 | 100 | 97 | 100 | 98 | 100 | 85 | 85 | 39 | 74 | 35 | 100 | 98 | 91
